Experimental data taken from patent publication US9630943B2, “Tetrahydronaphthyl(thio) carboxamides” (BAYER CROPSCIENCE AG, priority 2012, dated 2017).

assay: Measurement of logP values by HPLC on reversed phase columns (EEC directive 79/831 Annex V.A8); format: physicochemical; settings: method [a]

Row | SMILES | LogP^[a]
1 | Cc1nn(C)c(C)c1C(=O)Nc1cccc2c1CCC(C)(C)C2C (racemic) [Example 20] | 3.25^[a]
2 | Cc1nn(C)c(F)c1C(=O)Nc1cccc2c1CCC(C)C2C (mixture of isomers) [Example 13] | 3.41^[a]
3 | CCc1nc(C)sc1C(=O)Nc1cccc2c1CCC(C)(C)C2C (racemic) [Example 19] | 4.19^[a]
4 | Cc1nc(C(F)F)c(C(=O)Nc2cccc3c2CC(C)(C)CC3)s1 [Example 25] | 3.72^[a]
5 | C=C1c2cccc(NC(=O)c3sc(C)nc3C(F)F)c2CCC1(C)C [Example 7] | 3.87^[a]
6 | CON=C1CCCc2c(NC(=O)c3c(C)nn(C)c3C)cccc21 [Example 37] | 2.17^[a]
7 | Cc1nn(C)c(F)c1C(=O)Nc1cccc2c1CCC(C)(C)C2C (racemic) [Example 21] | 3.70^[a]
8 | CC1CCc2cccc(NC(=O)c3cn(C)nc3C(F)F)c2C1C (mixture of isomers) [Example 15] | 3.21^[a]
9 | CC1CCC(C)(C)c2cccc(NC(=O)c3cn(C)nc3C(F)F)c21 (racemic) [Example 17] | 3.44^[a]
10 | C=C1c2cccc(NC(=O)c3c(C)nn(C)c3C)c2CCC1(C)C [Example 6] | 3.05^[a]
11 | CON=C1CCCc2c(NC(=O)c3c(C)nn(C)c3F)cccc21 [Example 39] | 2.47^[a]
12 | CCON=C1CCCc2c(NC(=O)c3c(C)nn(C)c3F)cccc21 [Example 40] | 2.86^[a]
13 | CCON=C1CCCc2c(NC(=O)c3c(C)nn(C)c3C)cccc21 [Example 41] | 2.58^[a]
14 | Cn1cc(C(=O)Nc2cccc3c2CCCC3(C)C)c(C(F)F)n1 [Example 4] | 3.26^[a]
15 | Cc1nc(C(F)F)c(C(=O)Nc2cccc3c2CCC(C)(C)C3C)s1 (racemic) [Example 18] | 4.09^[a]
16 | Cc1nn(C)c(C)c1C(=O)Nc1cccc2c1CCC(C)C2C (mixture of isomers) [Example 11] | 3.00^[a]
17 | C=C1c2cccc(NC(=O)c3c(C)nn(C)c3F)c2CCC1(C)C [Example 9] | 3.48^[a]
18 | CC1CCc2cccc(NC(=O)c3cn(C)nc3C(F)F)c2C1(C)O (racemic) [Example 14] | 3.96^[a]

Row | SMILES | LogP^[a]
19 | Cc1nn(C)c(C)c1C(=O)Nc1cccc2c1CC(C)(C)CC2 [Example 23] | 2.90^[a]
20 | C=C1c2cccc(NC(=O)c3cn(C)nc3C(F)F)c2CCC1(C)C [Example 10] | 3.48^[a]
21 | Cn1cc(C(=O)Nc2cccc3c2CCCC3)c(C(F)F)n1 [Example 27] | 2.68^[a]
22 | Cc1nc(C(F)F)c(C(=O)Nc2cccc3c2CCC(C)C3C)s1 (mixture of isomers) [Example 35] | 3.78^[a]
23 | CCON=C1CCCc2c(NC(=O)c3cn(C)nc3C(F)F)cccc21 [Example 42] | 2.96^[a]
24 | C=C1c2cccc(NC(=O)c3sc(C)nc3CC)c2CCC1(C)C [Example 8] | 3.99^[a]
25 | CCc1nc(C)sc1C(=O)Nc1cccc2c1CCC(C)(C)C2=O [Example 32] | 2.71^[a]
26 | CCc1nc(C)sc1C(=O)Nc1cccc2c1CCC(C)C2C (mixture of isomers) [Example 36] | 3.87^[a]
27 | Cc1nn(C)c(F)c1C(=O)Nc1cccc2c1CCC(C)(C)C2=O [Example 30] | 2.28^[a]
28 | Cc1nc(C(F)F)c(C(=O)Nc2cccc3c2CCC(C)(C)C3=O)s1 [Example 33] | 2.73^[a]
29 | Cn1cc(C(=O)Nc2cccc3c2CCC(C)(C)C3=O)c(C(F)F)n1 [Example 29] | 2.40^[a]
30 | Cc1nn(C)c(C)c1C(=O)Nc1cccc2c1CCC(C)(C)C2=O [Example 31] | 2.04^[a]
31 | Cc1nn(C)c(F)c1C(=O)Nc1cccc2c1CC(C)(C)CC2 [Example 26] | 3.31^[a]
32 | CC1CCc2c(NC(=O)c3cn(C)nc3C(F)F)cccc2C1C (mixture of isomers) [Example 12] | 3.37^[a]
33 | Cn1cc(C(=O)Nc2cccc3c2CCCC3)c(C(F)(F)F)n1 [Example 28] | 2.92^[a]
34 | CC1CCc2c(NC(=O)c3cn(C)nc3C(F)F)cccc2C1(C)C (racemic) [Example 1] | 3.60^[a]
35 | CC1c2cccc(NC(=O)c3cn(C)nc3C(F)F)c2CCC1(C)C (racemic) [Example 22] | 3.68^[a]

The remaining lines, values ahead:

Row | LogP^[a] | SMILES
36 | 3.79^[a] | Cc1nc(C(F)F)c(C(=O)Nc2ccc(F)c3c2CCCC3(C)C)s1 [Example 58]
37 | 4.03^[a] | CCC1(CC)CCCc2c(NC(=O)c3cn(C)nc3C(F)F)cccc21 [Example 93]
38 | 3.55^[a] | CON=C1CCCc2c(NC(=O)c3c(C)oc(C)c3C)cccc21 [Example 71]
39 | 4.01^[a] | CC1(C)CCCc2c(NC(=O)C3=C(C(F)(F)F)OCCS3)ccc(F)c21 [Example 57]
40 | 3.99^[a] | Cn1nc(C(F)(F)F)c(C(=O)Nc2cccc3c2CCC(C)(C)C3)c1F [Example 86]
41 | 4.01^[a] | CCON=C1CCCc2c(NC(=O)c3c(C)oc(C)c3C)cccc21 [Example 78]
42 | 3.37^[a] | CON=C1CCCc2c(NC(=O)c3ccsc3Br)cccc21 [Example 49]
43 | 3.96^[a] | CC1(C)CCCc2c(NC(=O)c3nccnc3C(F)(F)F)ccc(F)c21 [Example 52]
44 | 3.87^[a] | Cn1cc(C(=S)Nc2ccc(F)c3c2CCCC3(C)C)c(C(F)F)n1 [Example 85]
45 | 2.99^[a] | Cn1cc(C(=O)Nc2cccc3c2C(C)(C)CCC3)c(C(F)F)n1 [Example 92]
46 | 3.85^[a] | CCc1nc(C)sc1C(=O)Nc1ccc(F)c2c1CCCC2(C)C [Example 59]
47 | 2.92^[a] | CON=C1CCCc2c(NC(=O)c3sc(C)nc3C(F)F)cccc21 [Example 48]
48 | 4.41^[a] | CC1(C)CCc2c(cccc2NC(=O)c2ccsc2Br)C1 [Example 66]
49 | 3.87^[a] | CCON=C1CCCc2c(NC(=O)c3ccsc3Br)cccc21 [Example 77]
50 | 3.99^[a] | CC1(C)CCc2c(cccc2NC(=O)C2=C(C(F)(F)F)OCCS2)C1 [Example 69]
51 | 3.37^[a] | CON=C1CCCc2c(NC(=O)c3ccsc3I)cccc21 [Example 56]
52 | 3.39^[a] | Cn1cc(C(=O)Nc2cccc3c2CCCC3(C)C)c(C(F)F)n1 [Example 60]
53 | 3.08^[a] | CON=C1CCCc2c(NC(=O)c3nccnc3C(F)(F)F)cccc21 [Example 55]
54 | 4.34^[a] | CC1(C)CCc2c(cccc2NC(=O)c2ccsc2I)C1 [Example 87]
55 | 3.87^[a] | CCc1nc(C)sc1C(=O)Nc1cccc2c1CCC(C)(C)C2 [Example 82]
56 | 4.11^[a] | CCON=C1CCCc2c(NC(=S)c3ccoc3C(F)F)cccc21 [Example 89]
57 | 4.06^[a] | CC1(C)CCc2c(cccc2NC(=O)c2ccoc2C(F)F)C1 [Example 64]
58 | 2.94^[a] | Cc1nn(C)c(C)c1C(=O)Nc1cccc2c1CCC(C)(C)C2 [Example 45]
59 | 3.70^[a] | CON=C1CCCc2c(NC(=S)c3ccoc3C(F)F)cccc21 [Example 83]

Row | LogP^[a] | SMILES
60 | 3.37^[a] | CCON=C1CCCc2c(NC(=O)c3sc(C)nc3CC)cccc21 [Example 81]
61 | 3.83^[a] | CCON=C1CCCc2c(NC(=O)c3ccsc3I)cccc21 [Example 84]
62 | 3.35^[a] | Cc1nn(C)c(F)c1C(=O)Nc1cccc2c1CCCC2(C)C [Example 61]
63 | 3.83^[a] | CCON=C1CCCc2c(NC(=S)c3nccnc3C(F)(F)F)cccc21 [Example 91]
64 | 3.44^[a] | CCON=C1CCCc2c(NC(=O)c3nccnc3I)cccc21 [Example 70]
65 | 4.29^[a] | CC1(C)CCCc2c(NC(=O)c3ccsc3I)ccc(F)c21 [Example 63]
66 | 4.59^[a] | Cc1oc(C)c(C(=O)Nc2cccc3c2CCC(C)(C)C3)c1C [Example 65]
67 | 3.57^[a] | CCON=C1CCCc2c(NC(=O)c3c(C(F)(F)F)nn(C)c3F)cccc21 [Example 73]
68 | 3.11^[a] | CON=C1CCCc2c(NC(=O)c3c(C(F)(F)F)nn(C)c3F)cccc21 [Example 75]
69 | 3.21^[a] | CON=C1CCCc2c(NC(=O)C3=C(C(F)(F)F)OCCS3)cccc21 [Example 76]
70 | 3.37^[a] | CCON=C1CCCc2c(NC(=O)c3sc(C)nc3C(F)F)cccc21 [Example 80]
71 | 3.55^[a] | CCON=C1CCCc2c(NC(=O)c3nccnc3C(F)(F)F)cccc21 [Example 72]
72 | 3.39^[a] | CON=C1CCCc2c(NC(=S)c3nccnc3C(F)(F)F)cccc21 [Example 88]
73 | 3.25^[a] | CON=C1CCCc2c(NC(=O)c3ccoc3C(F)F)cccc21 [Example 53]
74 | 3.02^[a] | CCc1nc(C)sc1C(=O)Nc1cccc2c1CCCC2=NOC [Example 47]
75 | 2.94^[a] | CON=C1CCCc2c(NC(=O)c3nccnc3I)cccc21 [Example 54]
76 | 3.92^[a] | CC1(C)CCCc2c(NC(=O)c3nccnc3I)ccc(F)c21 [Example 50]
77 | 3.68^[a] | CCON=C1CCCc2c(NC(=O)c3ccoc3C(F)F)cccc21 [Example 79]
78 | 4.51^[a] | Cc1oc(C)c(C(=O)Nc2ccc(F)c3c2CCCC3(C)C)c1C [Example 62]
79 | 4.01^[a] | CC1(C)CCc2c(cccc2NC(=O)c2nccnc2I)C1 [Example 67]
80 | 3.81^[a] | Cc1nc(C(F)F)c(C(=O)Nc2cccc3c2CCC(C)(C)C3)s1 [Example 46]
81 | 2.98^[a] | Cc1nn(C)c(C)c1C(=O)Nc1ccc(F)c2c1CCCC2(C)C [Example 90]
82 | 4.06^[a] | CC1(C)CCCc2c(NC(=O)c3ccoc3C(F)F)ccc(F)c21 [Example 51]
83 | 3.99^[a] | CC1(C)CCc2c(cccc2NC(=O)c2nccnc2C(F)(F)F)C1 [Example 68]

same assay, conditions: method [a], HPLC on reversed phase columns

Row | LogP[a] | SMILES
84 | 3.96^[a] | CC(C)C1CCCc2c(NC(=O)c3cn(C)nc3C(F)(F)F)cccc21 (stereo not shown) [Example 99]

same assay, conditions: pH 2.7

Row | chromatographic logP | SMILES
85 | 2.31 | C=C1c2c(cccc2NC(=O)c2cn(C)nc2C(F)F)CCC1(C)C [Example 16, 3-(difluoromethyl)-N-(7,7-dimethyl-8-methylene-5,6,7,8-tetrahydronaphthalen-1-yl)-1-methyl-1H-pyrazole-4-carboxamide]
